Experimental findings from patent US11845727B2, “Aldehyde and ketone derivatives of psilocybin and methods of using” (Enveric B[…] Inc., priority 2020, dated 2023) are described below.

Test [1] deals with T1, 5-HT1A receptor (Homo sapiens, UniProt P08908).
T1 construct: host or cells: CHO-K1 (co-expressing Gα15)
T1 sequence (P08908 1-422): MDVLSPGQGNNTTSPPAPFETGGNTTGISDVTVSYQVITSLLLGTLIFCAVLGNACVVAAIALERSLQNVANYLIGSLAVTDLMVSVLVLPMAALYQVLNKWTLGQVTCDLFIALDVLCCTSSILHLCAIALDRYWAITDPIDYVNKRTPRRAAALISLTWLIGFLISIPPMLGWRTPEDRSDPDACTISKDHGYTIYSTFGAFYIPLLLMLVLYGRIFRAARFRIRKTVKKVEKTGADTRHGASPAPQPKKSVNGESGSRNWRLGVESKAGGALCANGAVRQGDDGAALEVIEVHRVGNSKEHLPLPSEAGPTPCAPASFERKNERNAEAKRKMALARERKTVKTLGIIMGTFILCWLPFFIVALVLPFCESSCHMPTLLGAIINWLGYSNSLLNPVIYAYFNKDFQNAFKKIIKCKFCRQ
Nature of the test: cAMP-Glo assay with fixed forskolin in +5-HT1A cells (CHO-K1/5-HT1A/Gα15). It is filed as cell-based. To be noted: fixed (4 μM) forskolin; for luminescence as dosages of ligand decrease: +5HT1A cell culture, reduced luminescence = increased cAMP; for 5-HT1A receptor modulation (conclusion from cAMP/luminescence trend) / % cAMP levels as dosages of compound decrease: +5HT1A cell cultures. The text has this:
(§1) CHO-K1/Gα15 (GenScript, M00257) (−5-HT1A) and CHO-K1/5-HT1A/Gα15 (GenScript, M00330) (+5-HT1A) cells lines were used. Briefly, CHO-K1/Gα15 is a control cell line that constitutively expresses Gα15 which is a promiscuous Gq protein. This control cell line lacks any transgene encoding 5-HT1A receptors, but still responds to forskolin; thus, cAMP response to forskolin should be the same regardless of whether or not 5-HT1A agonists are present. Conversely, CHO-K1/5-HT1A/Gα15 cells stably express 5-HT1A receptor in the CHO-K1 host background. […] In +5-HT1A cells, Gα15 may be recruited in place of Gαi/o, which could theoretically dampen cAMP response (Rojas and Fiedler 2016, Front Cell Neurosci 10: 272). […] In contrast, tryptophan is not known to activate, or modulate in any way, 5-HT1A receptors, and was thus used as a negative control. Cells were maintained in complete growth media as recommended by supplier (GenScript) which is constituted as follows: Ham's F12 Nutrient mix (HAM's F12, GIBCO #11765-047) with 10% fetal bovine serum (FBS) (Thermo Scientific #12483020), 200 μg/ml zeocin (Thermo Scientific #R25005) and/or 100 μg/ml hygromycin (Thermo Scientific #10687010). The cells were cultured in a humidified incubator with 37° C. and 5% CO2. Cells maintenance was carried out as recommended by the cell supplier. Briefly, vials with cells were removed from the liquid nitrogen and thawed quickly in 37° C. water bath. Just before the cells were completely thawed the vial's outside was decontaminated by 70% ethanol spray. The cell suspension was then retrieved from the vial and added to warm (37° C.) complete growth media, and centrifuged at 1,000 rpm for 5 minutes. The supernatant was discarded, and the cell pellet was then resuspended in another 10 ml of complete growth media, and added to the 10 cm cell culture dish (Greiner Bio-One #664160). The media was changed every third day until the cells were about 90% confluent. The ˜90% confluent cells were then split 10:1 for maintenance or used for experiment.
As 5-HT1A activation inhibits cAMP formation, the ability of test molecules to modulate the 5-HT1A receptor response was measured via changes in the levels of cAMP produced due to application of 4 μM forskolin. The change in intracellular cAMP levels due to the treatment of novel molecules was measured using cAMP-Glo Assay kit (Promega # V1501). Briefly, +5-HT1A cells were seeded on 1-6 columns and base −5-HT1A cells were seeded on columns 7-12 of the white walled clear bottom 96-well plate (Corning, #3903). Both cells were seeded at the density of 30,000 cells/well in 100 μl complete growth media and cultured 24 hrs in humidified incubator at 37° C. and 5% CO2. On the experiment day, the media of cells was replaced with serum/antibiotic free culture media. Then the cells were treated for 20 minutes with test molecules dissolved in induction medium (serum/antibiotic free culture media containing 4 μM forskolin, 500 μM IBMX (isobutyl-1-methylxanthine, Sigma-Aldrich, Cat. #17018) and 100 μM (RO 20-1724, Sigma-Aldrich, Cat. #68279)). Forskolin induced cAMP formation whereas IBMX and RO 20-1724 inhibited the degradation of cAMP. PKA was added to the lysate, mixed, and subsequently the substrate of the PKA was added. PKA was activated by cAMP, and the amount of ATP consumed due to PKA phosphorylation directly corresponded to cAMP levels in the lysate. Reduced ATP caused reduced conversion of luciferin to oxyluciferin, conferring diminished luminescence as the result of 5-HT1A activation. Conversely, enhanced luminescence was expected in cases where 5-HT1A receptor modulation—imparted by a test molecule—caused downstream increases in ATP, thus imparting enhanced conversion of luciferin to oxyluciferin.

The target of test [2] is T2, 5-HT2A receptor (Homo sapiens, UniProt P28223).
T2 construct: purchased PerkinElmer ES-313-M400UA
T2 sequence (P28223 whole entry): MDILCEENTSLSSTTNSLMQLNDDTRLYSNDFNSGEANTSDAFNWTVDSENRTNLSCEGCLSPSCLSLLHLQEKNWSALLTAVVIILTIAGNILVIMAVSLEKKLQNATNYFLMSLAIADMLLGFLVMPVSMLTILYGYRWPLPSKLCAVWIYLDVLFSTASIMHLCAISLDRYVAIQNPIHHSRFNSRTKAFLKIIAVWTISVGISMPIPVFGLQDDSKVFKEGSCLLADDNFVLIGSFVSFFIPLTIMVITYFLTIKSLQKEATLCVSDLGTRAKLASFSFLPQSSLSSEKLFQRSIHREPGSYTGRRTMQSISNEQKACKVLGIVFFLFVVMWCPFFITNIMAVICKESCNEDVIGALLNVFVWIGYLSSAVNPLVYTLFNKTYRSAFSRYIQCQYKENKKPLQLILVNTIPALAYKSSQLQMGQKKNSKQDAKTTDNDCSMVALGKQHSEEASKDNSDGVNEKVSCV
As to the kind of experiment: [3H]ketanserin competition binding assay (SPA) at the 5-HT2A receptor. To be noted: fixed (1 nM) [3H]ketanserin, membranes containing 5-HT2A. The text has this: Evaluation of drug binding is an essential step to characterization of all drug-target interactions (Fang 2012, Exp Opin Drug Discov 7:969). The binding affinity of a drug to a target is traditionally viewed as an acceptable surrogate of its in vivo efficacy (Núñez et al., 2012, Drug Disc Today 17: 10). Competition assays, also called displacement or modulation binding assays, are a common approach to measure activity of a ligand at a target receptor (Flanagan 2016, Methods Cell Biol 132: 191). In these assays, standard radioligands acting either as agonists or antagonists are ascribed to specific receptors. […] After incubation, the samples were read on a MicroBeta 2 Microplate Counter (Perkin Elmer). […] Equilibrium binding constants for ketanserin (Kd) were determined from saturation binding curves using the ‘one-site saturation binding analysis’ method of GraphPad PRISM software (Version 9.2.0). […] Ki values were calculated from the competition displacement data using the competitive binding analysis from GraphPad PRISM software. […] Specific binding in counts per minute (cpm) was calculated by subtracting non-specific binding from total binding. Specific binding (pmol/mg) was calculated from pmol of [^3H]ketanserin bound per mg of protein in the assay. The Kd was calculated by fitting the data with the one-site binding model of PRISM software (version 9.2.0).

The subject of test [3] is CHO-K1/Gα15 (−5-HT1A) cells. Nature of the test: cAMP-Glo assay with fixed forskolin in −5-HT1A control cells (CHO-K1/Gα15). It is filed as cell-based. The following applies: fixed (4 μM) forskolin.
From the text: as §1
As 5-HT1A activation inhibits cAMP formation, the ability of test molecules to modulate the 5-HT1A receptor response was measured via changes in the levels of cAMP produced due to application of 4 μM forskolin. The change in intracellular cAMP levels due to the treatment of novel molecules was measured using cAMP-Glo Assay kit (Promega # V1501). […] Reduced ATP caused reduced conversion of luciferin to oxyluciferin, conferring diminished luminescence as the result of 5-HT1A activation. Conversely, enhanced luminescence was expected in cases where 5-HT1A receptor modulation—imparted by a test molecule—caused downstream increases in ATP, thus imparting enhanced conversion of luciferin to oxyluciferin.

Consider `N[C@@H](Cc1c[nH]c2ccccc12)C(=O)O` [tryptophan], for which, in test [1], the “luminescence as dosages of ligand decrease” value was “no trend in luminescence” and the “5-HT1A receptor modulation (conclusion from cAMP/luminescence trend)” value is given as “lack of 5-HT1A modulation”. Moreover, the “competition binding curve at the 5-HT2A receptor” value in test [2] is recorded as “no binding”.
With `CCCCN(CCCC)CCc1c(C=O)[nH]c2cccc(OC)c12` [compound (XII)], the “trend of % cAMP levels with decreasing compound in −5HT1A cell cultures” value in test [3] is on record as “not observed”. In test [1], the “5-HT1A receptor modulation (conclusion from cAMP/luminescence trend)” value is given as 5-HT1A modulation activity and the “% cAMP levels as dosages of compound decrease” value is listed as “decreased % cAMP levels”.
As to `NCCc1c[nH]c2ccc(O)cc12` [serotonin], in test [3], the “trend of % cAMP levels with decreasing compound in −5HT1A cell cultures” value is on record as “not observed”. Also, in test [1], the “5-HT1A receptor modulation (conclusion from cAMP/luminescence trend)” value is given as 5-HT1A binding activity and the “% cAMP levels as dosages of compound decrease” value was “increased % cAMP levels”.
Turning to `COc1ccc(C=O)c2[nH]cc(CCN)c12` [compound (X), 4-O-methyl-7-formyl psilocybin derivative], the “trend of % cAMP levels with decreasing compound in −5HT1A cell cultures” value in test [3] is “not observed”. Also, in test [1], the “5-HT1A receptor modulation (conclusion from cAMP/luminescence trend)” value was “modulate 5-HT1A response” and the “% cAMP levels as dosages of compound decrease” value is listed as “decreased % cAMP levels”.
As to `CN(C)CCc1c[nH]c2cccc(O)c12` [psilocin], the “competition binding curve at the 5-HT2A receptor” value in test [2] is reported as “binding”.
On to `CCN(CC)CCc1c[nH]c2c(C=O)ccc(O)c12` [compound (VIII), N,N-diethyl-7-formyl psilocybin derivative], for which the “trend of % cAMP levels with decreasing compound in −5HT1A cell cultures” value in test [3] is recorded as “not observed”. In test [1], the “5-HT1A receptor modulation (conclusion from cAMP/luminescence trend)” value is 5-HT1A modulation activity and the “% cAMP levels as dosages of compound decrease” value is given as “increased % cAMP levels”.
In the case of `CN(C)CCc1c[nH]c2ccccc12` [DMT], in test [1], the “luminescence as dosages of ligand decrease” value is reported as “reduced luminescence” and the “5-HT1A receptor modulation (conclusion from cAMP/luminescence trend)” value is 5-HT1A activity.
